Type in all cases: cell-based
In one series the target is human CXCR3A (Homo sapiens (Human), UniProt P49682). Description: FLIPR assay (calcium flux, CXCL10-induced). The settings on record: CHO-K1 cells expressing human CXCR3A coupled to Galpha(16); CXCL10 agonist at 20 nM. The protocol: The bioactivity of compounds is tested in a fluorometric imaging plate reader (FLIPR: Molecular Devices) using engineered CHO-K1 cells expressing the human CXCR3A (GenBank: AY242128) coupled to a G protein (Galpha(16)). Cells are plated the day prior to bioassay in F12 medium supplemented with 10% FBS and G418 and hygromycin antibiotics to maintain recombinant selection. At the day of bioassay, cells are washed and dye loaded for one hour with Fluo-4-AM (Invitrogen) in Hanks Balanced Salt Solution (Invitrogen), buffered with 20 mM Hepes at pH 7.4 and sodium bicarbonate (0.038%), containing 5 mM probenecid. This buffer, but lacking the dye and containing probenecid at a concentration of 2.5 mM, is also used for washing steps (wash buffer); or lacking both dye and probenecid but supplemented with 0.1% BSA for compound dilution steps (dilution buffer). Cells are washed free of excess dye and 60 microliter of wash buffer is added. Stock solutions of test compounds are made up at a concentration of 10 mM in DMSO, and serially diluted in dilution buffer to concentrations required for inhibition dose response curves. After a 10 minute incubation period at 37° C., 10 microliters of each compound dilution are transferred from a compound plate to the plate containing the recombinant cells in the FLIPR instrument according to the manufacturer's instructions. Following basal readings, 10 microliter CXCL10 agonist at a concentration of 20 nM (from Peprotech) is added, again using the FLIPR instrument. Changes in fluorescence are monitored before and after addition of the test compounds. Emission peak values above base level after CXCL10 addition are exported after base line subtraction.
Chain of human CXCR3A (P49682 whole entry): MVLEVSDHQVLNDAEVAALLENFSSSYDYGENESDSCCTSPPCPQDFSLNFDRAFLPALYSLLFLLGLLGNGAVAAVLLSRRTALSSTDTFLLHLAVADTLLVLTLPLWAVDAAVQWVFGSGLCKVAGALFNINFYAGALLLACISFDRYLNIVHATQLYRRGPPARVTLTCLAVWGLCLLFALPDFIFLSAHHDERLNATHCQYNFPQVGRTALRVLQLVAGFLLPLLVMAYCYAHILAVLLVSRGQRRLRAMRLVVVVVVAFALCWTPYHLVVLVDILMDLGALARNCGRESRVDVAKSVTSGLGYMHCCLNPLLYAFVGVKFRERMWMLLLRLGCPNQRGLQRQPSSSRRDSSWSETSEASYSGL
(§1) The calculated IC50 values may fluctuate depending on the daily assay performance. Fluctuations of this kind are known to those skilled in the art. In the case where IC50 values have been determined several times for the same compound, mean values are given. Data for the FLIPR assay are shown in Table 1 and for the receptor internalization assay (RIA) in Table 2.

The next series concerns the target hERG K channel (Homo sapiens (Human), UniProt Q12809). Description: hERG Q-Patch assay. The settings on record: CHO cells expressing hERG, K+ tail current. How it is done: Compounds are evaluated for block of the hERG K channel using CHO cells stably expressing the hERG gene (accession number U04270, bSys, Witterswil, Switzerland) and the QPatch robotic platform (Sophion, Ballerup, Denmark) in single-cell mode at room temperature. Cells are grown in culture flasks at 37° C. in 5% CO2, in culture medium (Ham's F-12 Nutrient Mixture, Invitrogen 21765-029) supplemented with 9% (v/v) fetal calf serum, 0.9% Penicillin/Streptomycin (10,000 U/mL, Invitrogen 15140148), 100 μg/mL Hygromycin B (Invitrogen 10687010). When the cells are ˜80% confluent (every 2-3 days), they are either split for further culture or used for electrophysiology. For further culture, cells are detached with 0.25% Trypsin EDTA solution (Invitrogen 25200-056) and a fraction of the cells (10-30%) is reseeded in culture medium. For electrophysiology, on the experimental day, cells are detached with 0.25% Trypsin EDTA solution and all cells are suspended in suspension medium (293 SFM II, Invitrogen 11686-029) supplemented with 20 mM HEPES and 0.04 mg/mL Trypsin inhibitor. Cells are kept in suspension medium at 32-35° C. in the QPatch robot until use, at which time aliquots are transferred to the extracellular solution (in mM: NaCl 150; KCl 4; CaCl2 1.2; MgCl2 1; HEPES 10; pH 7.4 with NaOH) containing 0.3% v/v DMSO and applied to the test plates. K+ currents are measured with the patch-voltage-clamp technique in the whole-cell configuration with the internal solution (in mM: KCl, 140; NaCl, 10; MgCl2, 1; HEPES, 10; EGTA, 5; pH=7.2 with KOH). Currents are low-pass filtered using the internal Bessel filter of the QPatch robot with a cut-off frequency of 2 kHz and are digitized at 10 kHz. K^+ tail currents are produced from a holding voltage of −80 mV by a 500-ms depolarization to +20 mV followed by a 500-ms repolarization to −40 mV; tail current amplitudes are measured at the end of the repolarization to −40 mV. The pulse pattern is repeated every 10 sec during the experiment, baseline K^+ current is measured after 3 min in extracellular solution, test-solution containing compound is then applied, and K^+ current in presence of compound is measured 3 minutes after application to the cells. The respective test-solution is prepared by (1) dissolving the test-compound in pure DMSO, (2) diluting this DMSO solution in extracellular solution, and (3) adding further DMSO, such that the final test-solution has a concentration of either 300 nM or 3000 nM of the test-compound and contains 0.3% v/v DMSO. Compound effects are quantified as % block by dividing the current in presence of compound by the baseline current; two or three experiments are performed for each compound and the final value represents the mean of the results of each experiment.

A further series has as its target CXCR3 (Homo sapiens (Human), UniProt P49682). Put plainly: Receptor internalization assay (RIA) in human whole blood. Conditions: final CXCL10 9 nM, CXCR3 surface expression on CD4 positive cells. How it is done: Stock solutions of test compounds are made up at a concentration of 10 mM in DMSO, and serially diluted in PBS containing 0.5% BSA to concentrations required for inhibition dose response curves. Diluted compounds are then mixed with an equal volume of CXCL10 (Peprotech) diluted in PBS. Anticoagulated venous human whole blood is added to the mixture, which is then incubated in a CO2 incubator at 37° C. to allow for ligand mediated receptor internalization (final CXCL10 concentration is 9 nM). After 30 min, the blood is mixed with fluorescently labeled CXCR3 and CD4 specific antibodies (Becton Dickinson) and incubated on ice for 10 minutes. Samples are then mixed with BD FACS Lysing Solution (Becton Dickinson) in order to eliminate red blood cells. After washing the cells with PBS containing 0.5% BSA, the samples are then analyzed in a flow cytometer (FACS Canto II, Becton Dickinson). For data analysis using FACSDiva software (Becton Dickinson), the mean fluorescence corresponding to CXCR3 cell surface expression was determined on CD4 positive cells.
as §1

Structures are written as SMILES. pIC50: −log10 of the molar value.

Chain of CXCR3 (P49682 whole entry): as above
Chain of hERG K channel (Q12809 whole entry): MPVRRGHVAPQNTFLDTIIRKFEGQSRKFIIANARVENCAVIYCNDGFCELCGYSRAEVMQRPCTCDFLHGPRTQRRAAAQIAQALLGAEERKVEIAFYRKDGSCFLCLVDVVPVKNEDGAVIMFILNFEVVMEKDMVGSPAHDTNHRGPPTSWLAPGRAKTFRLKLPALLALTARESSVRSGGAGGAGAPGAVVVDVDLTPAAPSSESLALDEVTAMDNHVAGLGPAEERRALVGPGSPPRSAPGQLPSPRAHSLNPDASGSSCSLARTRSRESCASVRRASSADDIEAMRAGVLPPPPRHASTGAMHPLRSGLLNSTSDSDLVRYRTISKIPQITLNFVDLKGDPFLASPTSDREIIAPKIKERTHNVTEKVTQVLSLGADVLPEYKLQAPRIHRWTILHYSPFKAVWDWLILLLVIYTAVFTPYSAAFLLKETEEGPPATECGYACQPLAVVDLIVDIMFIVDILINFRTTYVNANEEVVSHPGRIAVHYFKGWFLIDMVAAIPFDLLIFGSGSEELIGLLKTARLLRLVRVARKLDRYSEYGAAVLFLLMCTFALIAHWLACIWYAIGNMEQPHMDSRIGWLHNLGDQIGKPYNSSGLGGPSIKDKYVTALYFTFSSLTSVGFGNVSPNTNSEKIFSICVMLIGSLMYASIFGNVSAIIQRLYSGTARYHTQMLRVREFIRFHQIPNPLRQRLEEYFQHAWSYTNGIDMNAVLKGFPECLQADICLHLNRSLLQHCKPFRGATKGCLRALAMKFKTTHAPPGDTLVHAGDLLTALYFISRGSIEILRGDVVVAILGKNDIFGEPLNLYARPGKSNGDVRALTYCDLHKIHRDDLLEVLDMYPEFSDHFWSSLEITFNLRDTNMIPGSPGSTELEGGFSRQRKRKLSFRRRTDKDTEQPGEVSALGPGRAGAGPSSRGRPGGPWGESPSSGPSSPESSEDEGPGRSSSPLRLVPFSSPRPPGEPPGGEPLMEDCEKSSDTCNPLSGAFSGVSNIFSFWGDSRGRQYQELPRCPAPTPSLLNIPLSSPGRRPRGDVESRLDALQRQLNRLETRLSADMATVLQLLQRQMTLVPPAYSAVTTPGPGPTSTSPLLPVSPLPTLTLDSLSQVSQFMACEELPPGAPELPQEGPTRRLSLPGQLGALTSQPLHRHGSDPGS

As to `C[C@@H]1CN(c2sc(C(F)(F)F)nc2-c2cnc(C(F)(F)F)nc2)CCN1C(=O)Cn1cnc(C(C)(C)C)n1` [Example 8, 2-(3-tert-Butyl-[1,2,4]triazol-1-yl)-1-{(R)-2-methyl-4-[2-trifluoromethyl-4-(2-trifluoromethyl-pyrimidin-5-yl)-thiazol-5-yl]-piperazin-1-yl}-ethanone], the pIC50 on human CXCR3A was 8.80; at CXCR3, 6.46. Besides, the figures for the “% block” value at hERG K channel (concentration 300 nM) and at hERG K channel (concentration 3000 nM) were 4% and 23%, respectively.

In the case of `CCOc1ncc(-c2nc(C(F)(F)F)sc2N2CCN(C(=O)Cn3cnc(C(C)C)n3)[C@H](C)C2)cn1` [Example 1, 1-{(R)-4-[4-(2-Ethoxy-pyrimidin-5-yl)-2-trifluoromethyl-thiazol-5-yl]-2-methyl-piperazin-1-yl}-2-(3-isopropyl-[1,2,4]triazol-1-yl)-ethanone], the pIC50 at human CXCR3A was 8.64; at CXCR3, 6.52. Besides, the “% block” value at hERG K channel (concentration 300 nM) is recorded as 6%; on hERG K channel (concentration 3000 nM) it was 20%.

On to `CCc1ncn(CC(=O)N2CCN(c3sc(C(F)(F)F)nc3-c3cnc(C4CC4)nc3)C[C@H]2C)n1` [Example 15, 1-{(R)-4-[4-(2-Cyclopropyl-pyrimidin-5-yl)-2-trifluoromethyl-thiazol-5-yl]-2-methyl-piperazin-1-yl}-2-(3-ethyl-[1,2,4]triazol-1-yl)-ethanone], for which the negative-log IC50 (pIC50) was 8.60 on human CXCR3A and 6.72 on CXCR3. Besides, the “% block” value on hERG K channel (concentration 300 nM) is reported as 3%; on hERG K channel (concentration 3000 nM), 27%.

For the compound `CC(C)c1ncn(CC(=O)N2CCN(c3sc(C(F)(F)F)nc3-c3cnc(C4CC4)nc3)C[C@H]2C)n1` [Example 16, 1-{(R)-4-[4-(2-Cyclopropyl-pyrimidin-5-yl)-2-trifluoromethyl-thiazol-5-yl]-2-methyl-piperazin-1-yl}-2-(3-isopropyl-[1,2,4]triazol-1-yl)-ethanone], the figures for the pIC50 on human CXCR3A and at CXCR3 were 9.15 and 6.28, respectively. Also, the “% block” value is listed as 1% at hERG K channel (concentration 300 nM) and 25% at hERG K channel (concentration 3000 nM).

Consider `COCc1ncn(CC(=O)N2CCN(c3sc(C(F)(F)F)nc3-c3cnc(C4CC4)nc3)C[C@H]2C)n1` [Example 18, 1-{(R)-4-[4-(2-Cyclopropyl-pyrimidin-5-yl)-2-trifluoromethyl-thiazol-5-yl]-2-methyl-piperazin-1-yl}-2-(3-methoxymethyl-[1,2,4]triazol-1-yl)-ethanone], for which the pIC50 was 8.51 on human CXCR3A and 5.86 against CXCR3. Besides, the “% block” value on hERG K channel (concentration 300 nM) amounted to 10%; on hERG K channel (concentration 3000 nM), 22%.

As for `CCOc1ncc(-c2nc(C(F)(F)F)sc2N2CCN(C(=O)Cn3cnc(COC)n3)[C@H](C)C2)cn1` [Example 4, 1-{(R)-4-[4-(2-Ethoxy-pyrimidin-5-yl)-2-trifluoromethyl-thiazol-5-yl]-2-methyl-piperazin-1-yl}-2-(3-methoxymethyl-[1,2,4]triazol-1-yl)-ethanone], the pIC50 at human CXCR3A was 7.89; against CXCR3, 6.02. In addition, the “% block” value on hERG K channel (concentration 300 nM) was found to be 5%; on hERG K channel (concentration 3000 nM), 10%.

For `CC(C)c1ncn(CC(=O)N2CCN(c3sc(C(F)(F)F)nc3-c3cnc(OC4CCC4)nc3)C[C@H]2C)n1` [Example 14, 1-{(R)-4-[4-(2-Cyclobutoxy-pyrimidin-5-yl)-2-trifluoromethyl-thiazol-5-yl]-2-methyl-piperazin-1-yl}-2-(3-isopropyl-[1,2,4]triazol-1-yl)-ethanone], the pIC50 at human CXCR3A is 8.92; on CXCR3, 6.34. For the same compound, the results for the “% block” value on hERG K channel (concentration 300 nM) and at hERG K channel (concentration 3000 nM) were 4% and 27%, respectively.

With `C[C@@H]1CN(c2sc(C(F)(F)F)nc2-c2cnc(C(F)(F)F)nc2)CCN1C(=O)Cn1cnc(C(C)(C)O)n1` [Example 13, 2-[3-(1-Hydroxy-1-methyl-ethyl)-[1,2,4]triazol-1-yl]-1-{(R)-2-methyl-4-[2-trifluoromethyl-4-(2-trifluoromethyl-pyrimidin-5-yl)-thiazol-5-yl]-piperazin-1-yl}-ethanone], the pIC50 at human CXCR3A is 8.49; against CXCR3, 6.08. The “% block” value is given as 10% on hERG K channel (concentration 300 nM) and 21% at hERG K channel (concentration 3000 nM).

Turning to `CCCc1ncn(CC(=O)N2CCN(c3sc(C(F)(F)F)nc3-c3cnc(C(F)(F)F)nc3)C[C@H]2C)n1` [Example 11, 1-{(R)-2-Methyl-4-[2-trifluoromethyl-4-(2-trifluoromethyl-pyrimidin-5-yl)-thiazol-5-yl]-piperazin-1-yl}-2-(3-propyl-[1,2,4]triazol-1-yl)-ethanone], the pIC50 on human CXCR3A was 8.36; against CXCR3, 6.66. The “% block” value at hERG K channel (concentration 300 nM) is listed as 5%; on hERG K channel (concentration 3000 nM), 30%.

Regarding `CCc1ncn(CC(=O)N2CCN(c3sc(C(F)(F)F)nc3-c3cnc(C(F)(F)F)nc3)C[C@H]2C)n1` [Example 6, 2-(3-Ethyl-[1,2,4]triazol-1-yl)-1-{(R)-2-methyl-4-[2-trifluoromethyl-4-(2-trifluoromethyl-pyrimidin-5-yl)-thiazol-5-yl]-piperazin-1-yl}-ethanone], the negative-log IC50 (pIC50) at human CXCR3A is 8.70; on CXCR3 it was 6.83. For the same compound, the “% block” value at hERG K channel (concentration 300 nM) turned out to be 5%; at hERG K channel (concentration 3000 nM) it was 22%.

Consider `C[C@@H]1CN(c2sc(C(F)(F)F)nc2-c2cnc(C3CC3)nc2)CCN1C(=O)Cn1cnc(C(C)(C)C)n1` [Example 17, 2-(3-tert-Butyl-[1,2,4]triazol-1-yl)-1-{(R)-4-[4-(2-cyclopropyl-pyrimidin-5-yl)-2-trifluoromethyl-thiazol-5-yl]-2-methyl-piperazin-1-yl}-ethanone], for which the pIC50 at human CXCR3A is 8.34; against CXCR3 it was 6.17. For the same compound, the “% block” value on hERG K channel (concentration 300 nM) is recorded as 0%; at hERG K channel (concentration 3000 nM) it was 23%.

As for `CCOc1ncc(-c2nc(C(F)(F)F)sc2N2CCN(C(=O)Cn3cnc(C(C)(C)C)n3)[C@H](C)C2)cn1` [Example 3, 2-(3-tert-Butyl-[1,2,4]triazol-1-yl)-1-{(R)-4-[4-(2-ethoxy-pyrimidin-5-yl)-2-trifluoromethyl-thiazol-5-yl]-2-methyl-piperazin-1-yl}-ethanone], the values for the pIC50 at human CXCR3A and against CXCR3 were 9.00 and 6.26, respectively. In addition, the figures for the “% block” value on hERG K channel (concentration 300 nM) and on hERG K channel (concentration 3000 nM) were 10% and 20%, respectively.

The values above are taken from patent US10047080B2, “(R)-2-methyl-piperazine derivatives as CXCR3 receptor modulators” (Idorsia Pharmaceuticals Ltd., priority 2015, dated 2018).
